Results reported in article PMC5784442 (ACS catalysis, 2017).

Assays:
[1] = molecular target: T1, ‘TesA (Escherichia coli, UniProt P0ADA1); test: X-ray crystal structure, […] A; assay type: binding; conditions: 3 mM octanoic acid, Homo-PIPES pH 5.0
T1 sequence (P0ADA1 27-208): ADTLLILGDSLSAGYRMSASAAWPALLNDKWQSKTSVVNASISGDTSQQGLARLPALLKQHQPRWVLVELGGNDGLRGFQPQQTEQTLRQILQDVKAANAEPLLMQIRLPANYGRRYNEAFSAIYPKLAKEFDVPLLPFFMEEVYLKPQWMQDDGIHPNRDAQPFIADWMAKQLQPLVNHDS

[2] = molecular target: T1, ‘TesA; test: DTNB assay at […] nm, free CoA release; assay type: biochemical; conditions: 0-120 µM substrate, 40 nM enzyme

SMILES	X-ray crystal structure, 1.65 A [1]	DTNB assay at 412 nm, free CoA release [2]
CCCCCCCC(=O)O [C8, octanoic acid]	Crystal structures of WT ‘TesA and R3.M4 bound to octanoic acid were solved	–
CCCCCCCC(=O)SCCNC(=O)CCNC(=O)[C@H](O)C(C)(C)COP(=O)(O)OP(=O)(O)OC[C@H]1O[C@@H](n2cnc3c(N)ncnc32)[C@H](O)[C@@H]1OP(=O)(O)O [C8-CoA, octanoyl-CoA]	–	‘TesA WT and R3.M4 activity on C8-CoA
CCCCCCCCCCCC(=O)SCCNC(=O)CCNC(=O)[C@H](O)C(C)(C)COP(=O)(O)OP(=O)(O)OC[C@H]1O[C@@H](n2cnc3c(N)ncnc32)[C@H](O)[C@@H]1OP(=O)(O)O [C12-CoA, dodecanoyl-CoA]	–	highest in vitro ‘TesA WT activity (Figure 7A) was observed for C12-CoA, C14-CoA and C16-CoA
